Measured values published in ChEMBL document CHEMBL2163283, “Design and synthesis of novel stiripentol analogues as potential anticonvulsants” (Eur J Med Chem, 2012).
Calls of active or inactive are those of the source. No cut-off for these calls is given here.

Key:
Mus musculus [1] = experiment: Anticonvulsant activity in Swiss albino mouse assessed as protection against subcutaneous pentylenetetrazol-induced seizures at 350 umol/kg, ip administered 30 mins before pentylenetetrazole challenge measured after 30 mins relative to stiripentol; format: functional
Mus musculus [2] = experiment: Neurotoxicity in Swiss albino mouse assessed as effect on hindlimb grip strength at 350 umol/kg, sc administered measured every 15 mins for 2 hrs; format: toxicity, organism-based; details: in vivo
Mus musculus [3] = experiment: Anticonvulsant activity in Swiss albino mouse assessed as maximal electroshock-induced seizures at 350 umol/kg, ip administered 30 mins before electroshock challenge; format: functional
Mus musculus [4] = experiment: Neurotoxicity in Swiss albino mouse assessed as climbing response to inverted mesh at 350 umol/kg, sc administered measured every 15 mins for 2 hrs by wire mesh grasping test; format: toxicity, organism-based; details: in vivo
Mus musculus [5] = experiment: Anticonvulsant activity in Swiss albino mouse assessed as protection against subcutaneous pentylenetetrazol-induced seizures at 350 umol/kg, ip administered 30 mins before pentylenetetrazole challenge measured after 30 mins; format: functional
Mus musculus [6] = experiment: Anticonvulsant activity in ip dosed Swiss albino mouse assessed as protection against subcutaneous pentylenetetrazol-induced seizures administered 30 mins before pentylenetetrazole challenge measured after 30 mins; format: functional
Mus musculus [7] = experiment: Anticonvulsant activity in Swiss albino mouse assessed as protection against subcutaneous pentylenetetrazol-induced seizures at 410 umol/kg, ip administered 30 mins before pentylenetetrazole challenge measured after 30 mins relative to stiripentol; format: functional
Mus musculus [8] = experiment: Anticonvulsant activity in Swiss albino mouse assessed as protection against subcutaneous pentylenetetrazol-induced seizures at 410 umol/kg, ip administered 30 mins before pentylenetetrazole challenge measured after 30 mins; format: functional
Mus musculus [9] = experiment: Anticonvulsant activity in Swiss albino mouse assessed as maximal electroshock-induced seizures at 410 umol/kg, ip administered 30 mins before electroshock challenge; format: functional
Mus musculus [10] = experiment: Anticonvulsant activity in Swiss albino mouse assessed as protection against subcutaneous pentylenetetrazol-induced seizures at 390 umol/kg, ip administered 30 mins before pentylenetetrazole challenge measured after 30 mins; format: functional
Mus musculus [11] = experiment: Anticonvulsant activity in Swiss albino mouse assessed as maximal electroshock-induced seizures at 390 umol/kg, ip administered 30 mins before electroshock challenge; format: functional, organism-based
Mus musculus [12] = experiment: Anticonvulsant activity in Swiss albino mouse assessed as protection against subcutaneous pentylenetetrazol-induced seizures at 390 umol/kg, ip administered 30 mins before pentylenetetrazole challenge measured after 30 mins relative to stiripentol; format: functional
Mus musculus [13] = experiment: Anticonvulsant activity in Swiss albino mouse assessed as maximal electroshock-induced seizures at 370 umol/kg, ip administered 30 mins before electroshock challenge; format: functional, organism-based
Mus musculus [14] = experiment: Anticonvulsant activity in Swiss albino mouse assessed as protection against subcutaneous pentylenetetrazol-induced seizures at 370 umol/kg, ip administered 30 mins before pentylenetetrazole challenge measured after 30 mins relative to stiripentol; format: functional
Mus musculus [15] = experiment: Anticonvulsant activity in Swiss albino mouse assessed as protection against subcutaneous pentylenetetrazol-induced seizures at 370 umol/kg, ip administered 30 mins before pentylenetetrazole challenge measured after 30 mins; format: functional
Mus musculus [16] = experiment: Anticonvulsant activity in Swiss albino mouse assessed as protection against subcutaneous pentylenetetrazol-induced seizures at 384 umol/kg, ip administered 30 mins before pentylenetetrazole challenge measured after 30 mins; format: functional
Mus musculus [17] = experiment: Anticonvulsant activity in Swiss albino mouse assessed as protection against subcutaneous pentylenetetrazol-induced seizures at 576 umol/kg, ip administered 30 mins before pentylenetetrazole challenge measured after 30 mins; format: functional
Mus musculus [18] = experiment: Anticonvulsant activity in Swiss albino mouse assessed as protection against subcutaneous pentylenetetrazol-induced seizures at 534 umol/kg, ip administered 30 mins before pentylenetetrazole challenge measured after 30 mins; format: functional
Mus musculus [19] = experiment: Anticonvulsant activity in ip dosed Swiss albino mouse assessed as maximal electroshock-induced seizures administered 30 mins before electroshock challenge; format: functional
Mus musculus [20] = experiment: Anticonvulsant activity in Swiss albino mouse assessed as protection against subcutaneous pentylenetetrazol-induced seizures at 640 umol/kg, ip administered 30 mins before pentylenetetrazole challenge measured after 30 mins; format: functional
Mus musculus [21] = experiment: Neurotoxicity in Swiss albino mouse assessed as effect on hindlimb grip strength at 747 umol/kg, sc administered measured every 15 mins for 2 hrs; format: toxicity, organism-based; details: in vivo
Mus musculus [22] = experiment: Anticonvulsant activity in Swiss albino mouse assessed as protection against subcutaneous pentylenetetrazol-induced seizures at 491 umol/kg, ip administered 30 mins before pentylenetetrazole challenge measured after 30 mins; format: functional
Mus musculus [23] = experiment: Anticonvulsant activity in Swiss albino mouse assessed as maximal electroshock-induced seizures at 640 umol/kg, ip administered 30 mins before electroshock challenge; format: functional
Mus musculus [24] = experiment: Anticonvulsant activity in Swiss albino mouse assessed as protection against subcutaneous pentylenetetrazol-induced seizures at 747 umol/kg, ip administered 30 mins before pentylenetetrazole challenge measured after 30 mins; format: functional
Mus musculus [25] = experiment: Neurotoxicity in Swiss albino mouse assessed as climbing response to inverted mesh at 747 umol/kg, sc administered measured every 15 mins for 2 hrs by wire mesh grasping test; format: toxicity, organism-based; details: in vivo
Mus musculus [26] = experiment: Anticonvulsant activity in Swiss albino mouse assessed as protection against subcutaneous pentylenetetrazol-induced seizures at 427 umol/kg, ip administered 30 mins before pentylenetetrazole challenge measured after 30 mins; format: functional
Mus musculus [27] = experiment: Anticonvulsant activity in Swiss albino mouse assessed as protection against subcutaneous pentylenetetrazol-induced seizures at 420 umol/kg, ip administered 30 mins before pentylenetetrazole challenge measured after 30 mins; format: functional
Mus musculus [28] = experiment: Anticonvulsant activity in Swiss albino mouse assessed as protection against subcutaneous pentylenetetrazol-induced seizures at 420 umol/kg, ip administered 30 mins before pentylenetetrazole challenge measured after 30 mins relative to stiripentol; format: functional
Mus musculus [29] = experiment: Anticonvulsant activity in Swiss albino mouse assessed as maximal electroshock-induced seizures at 420 umol/kg, ip administered 30 mins before electroshock challenge; format: functional, organism-based
Mus musculus [30] = experiment: Anticonvulsant activity in Swiss albino mouse assessed as protection against subcutaneous pentylenetetrazol-induced seizures at 159 umol/kg, ip administered 30 mins before pentylenetetrazole challenge measured after 30 mins; format: functional, organism-based
Mus musculus [31] = experiment: Anticonvulsant activity in Swiss albino mouse assessed as maximal electroshock-induced seizures at 159 umol/kg, ip administered 30 mins before electroshock challenge; format: functional
Mus musculus [32] = experiment: Anticonvulsant activity in Swiss albino mouse assessed as maximal electroshock-induced seizures at 340 umol/kg, ip administered 30 mins before electroshock challenge; format: functional
Mus musculus [33] = experiment: Anticonvulsant activity in Swiss albino mouse assessed as protection against subcutaneous pentylenetetrazol-induced seizures at 340 umol/kg, ip administered 30 mins before pentylenetetrazole challenge measured after 30 mins; format: functional
Mus musculus [34] = experiment: Anticonvulsant activity in Swiss albino mouse assessed as protection against subcutaneous pentylenetetrazol-induced seizures at 340 umol/kg, ip administered 30 mins before pentylenetetrazole challenge measured after 30 mins relative to stiripentol; format: functional

In the case of `CC(C)(C)C1=NN(C(=O)c2ccc(Br)cc2)C(c2ccc3c(c2)OCO3)C1` (racemic), the Activity (Mus musculus [1]) is reported as 2.13%, the Activity (Mus musculus [2]) is reported as “Non-toxic” and the Activity (Mus musculus [3]) is reported as 16%. The Activity (Mus musculus [4]) was “Non-toxic”, the Activity (Mus musculus [5]) was 100% and the ED50 (Mus musculus [6]) was 110 mg/kg.

Compound `CC(C)(C)C1=NN(C(=O)Nc2ccccc2)C(c2ccc3c(c2)OCO3)C1` (racemic) has an Activity (Mus musculus [7]) of 1.3%, an Activity (Mus musculus [8]) of 66% and an Activity (Mus musculus [9]) of 16%.

With `CC(C)(C)C1=NN(C(=O)Nc2ccc(F)cc2)C(c2ccc3c(c2)OCO3)C1` (racemic) the Activity (Mus musculus [10]) was 33%, the Activity (Mus musculus [11]) was “inactive” and the Activity (Mus musculus [12]) was 1.09 ratio to stiripentol.

With `CC(C)(C)C1=NN(C(=O)c2ccc(Cl)cc2)C(c2ccc3c(c2)OCO3)C1` (racemic) the Activity (Mus musculus [10]) was 50%, the Activity (Mus musculus [11]) was “inactive” and the Activity (Mus musculus [12]) was 1.26 ratio to stiripentol.

With `CC(C)(C)C(/C=C/c1ccc2c(c1)OCO2)=N/NC(=O)Nc1ccc(F)cc1` the Activity (Mus musculus [10]) was 50%, the Activity (Mus musculus [11]) was “inactive” and the Activity (Mus musculus [12]) was 1.26 ratio to stiripentol.

In the case of `CC(C)(C)C(/C=C/c1ccc2c(c1)OCO2)=N/NC(=O)Nc1ccc(Cl)cc1`, the Activity (Mus musculus [13]) is reported as “inactive”, the Activity (Mus musculus [14]) is reported as 1.15% and the Activity (Mus musculus [15]) is reported as 33%.

`CC(C)(C)C(O)/C=C/c1ccc2c(c1)OCO2` (configuration not stated) [STIRIPENTOL] was tested, and the Activity (Mus musculus [16]) was 16%, the Activity (Mus musculus [17]) was 83% and the Activity (Mus musculus [18]) was 66%. For the same compound, the ED50 (Mus musculus [19]) was 277 mg/kg, the Activity (Mus musculus [20]) was 83% and the Activity (Mus musculus [21]) was “Non-toxic”. It also gave an Activity (Mus musculus [22]) of 50%, an Activity (Mus musculus [23]) of 66% and an Activity (Mus musculus [24]) of 100%. For the same compound, the ED50 (Mus musculus [6]) was 115 mg/kg, the Activity (Mus musculus [25]) was “Non-toxic” and the Activity (Mus musculus [26]) was 33%.

For `CC(C)(C)C1=NN(C(=O)c2ccccc2)C(c2ccc3c(c2)OCO3)C1` (racemic), the Activity (Mus musculus [27]) was 66%, the Activity (Mus musculus [28]) was 1.27% and the Activity (Mus musculus [29]) was “inactive”.

For `Cc1ccccc1NC(=O)N/N=C(\C=C\c1ccc2c(c1)OCO2)C(C)(C)C`, the Activity (Mus musculus [10]) was 83%, the Activity (Mus musculus [11]) was “inactive” and the Activity (Mus musculus [12]) was 1.48 ratio to stiripentol.

With `O=C1NC(=O)C(c2ccccc2)(c2ccccc2)N1` [PHENYTOIN] the Activity (Mus musculus [30]) was “inactive” and the Activity (Mus musculus [31]) was 100%.

For `CC(C)(C)C(/C=C/c1ccc2c(c1)OCO2)=N/NC(=O)Nc1ccc(Cl)cc1Cl`, the Activity (Mus musculus [32]) was 16%, the Activity (Mus musculus [33]) was 33% and the Activity (Mus musculus [34]) was 1.26%.

In the case of `Cc1ccccc1C(=O)N1N=C(C(C)(C)C)CC1c1ccc2c(c1)OCO2` (racemic), the Activity (Mus musculus [7]) is reported as “inactive”, the Activity (Mus musculus [8]) is reported as “inactive” and the Activity (Mus musculus [9]) is reported as 16%.
